Laboratory results published in patent US9290487B2, “Pharmaceutical composition for treating diabetes” (Ajinomoto Co., Inc., priority 2011, dated 2016).

The molecules below were run against human GYS1 (glycogen synthase) (Homo sapiens (Human), UniProt P13807) (assay: Measurement of glycogen synthase activity (coupled pyruvate kinase/lactate dehydrogenase assay, absorbance at 340 nm)). Details: concentration inducing relative activity of 50% (100% = Ex. 1 of WO/2011/058154 at 10 μM); incubation at 37° C. for 20 minutes (Examples 11 to 75).
Assay type: biochemical
Procedure: A human GYS1 expression plasmid (pCDNA3.1(+)-hGYS1) was constructed by the following method. Using a human skeletal muscle cDNA of Human MTC Panel I (Takara Bio Inc., 636742) as a template, a human GYS1 gene was amplified by a PCR method using cloning primers (Forward Primer: ATGCCTTTAAACCGCAC (SEQ ID NO: 1), Reverse Primer: TTAGTTACGCTCCTCGC (SEQ ID NO: 2)). Using the amplified human GYS1 sequence as a template, a restriction enzyme sequence was added by a PCR method using sub-cloning primers (Forward Primer: […] (SEQ ID NO: 3), Reverse Primer: […] (SEQ ID NO: 4)). Then, the human GYS1 gene was introduced between a Xho I site and a Xba I site of pCDNA3.1(+) (Invitrogen Corporation, V790-20).
Glycogen synthase was prepared by the following method according to the published article (THE JOURNAL OF BIOLOGICAL CHEMISTRY Vol. 269, No. 41, 25534-25542, 1994). Human kidney-derived HEK293T cells were seeded in a dish (Thermo Fisher Scientific Inc., 168381) using a 10% FBS-containing DMEM (Nacalai Tesque, Inc., 0845874) medium, and cultured overnight. Then, using Lipofectamine LTX (Invitrogen Corporation, 15338-100), the human GYS1 expression vector was transfected according to the attached manual. After culturing under conditions of 37° C. and 5% CO2 for 2 days, the resultant was dissolved in a lysis buffer (50 mM Tris-HCl (pH 8.0), 10 mM EDTA, 2 mM EGTA, 100 mM NaF, 1 mM PMSF, 1 mM DTT, 1× Complete (Roche Diagnostics K. K., 1873580)), homogenized, and then centrifuged at 16000×g at 4° C. for 15 minutes. To the precipitated fraction, a lysis buffer was added. Re-dissolved fractions were used as glycogen synthase for evaluation.
The glycogen synthase activity was measured by the following method. To a polystyrene 96-well plate, a solution containing 30 mM glycylglycine (pH 7.3), 40 mM KCl, 20 mM MgCl2, 9.2% DMSO containing one of the test compounds at various concentrations, and 10 mM glucose-6-phosphate (Sigma-Aldrich Corporation, G7879) was added by 12 μL/well.
Next, a substrate solution containing 30 mM glycylglycine (pH 7.3), 4.3 mg/mL of glycogen (Sigma-Aldrich Corporation, G8876), 21.6 mM UDP-glucose (Sigma-Aldrich Corporation, U4625), 21.6 mM phosphoenolpyruvic acid (Sigma-Aldrich Corporation, P0564), and 4.05 mM NADH (Sigma-Aldrich Corporation, N8129) was added by 18 μL/well.
Further, an enzyme solution containing 50 mM Tris-HCl (pH 8.0), 27 mM DTT (Nacalai Tesque, Inc., 14128-04), 0.2 mg/mL of bovine serum albumin, 0.17 mg/mL of the glycogen synthase, 1.5 μL of a pyruvate kinase/lactate dehydrogenase solution (Sigma-Aldrich Corporation, P0294) was added by 18 μL/well to prepare a reaction solution. After the reaction solution was incubated (at 30° C. for 25 minutes for Examples 1 to 10, at 37° C. for 20 minutes for Examples 11 to 75), the absorbance at 340 nm was measured using Benchmark Plus (Bio-Rad Laboratories, Inc.).
The activities of the test compounds were calculated by the following method. The change in the absorbance (ΔA340) was calculated by subtracting the absorbance at 340 nm of the reaction solution containing the compound and DMSO from the absorbance at 340 nm of a reaction solution not containing the compound but containing only DMSO. The ΔA340 of the reaction solution containing the compound of Example 1 in WO/2011/058154 at the final concentration of 10 μM was taken as 100% to calculate the relative activity (%) of the test compounds at various concentrations. EC50 representing the concentration of the compound which induces an increase in the relative activity to 50% was calculated using XLfit (idbs).

Chain of human GYS1 (glycogen synthase) (P13807 whole entry): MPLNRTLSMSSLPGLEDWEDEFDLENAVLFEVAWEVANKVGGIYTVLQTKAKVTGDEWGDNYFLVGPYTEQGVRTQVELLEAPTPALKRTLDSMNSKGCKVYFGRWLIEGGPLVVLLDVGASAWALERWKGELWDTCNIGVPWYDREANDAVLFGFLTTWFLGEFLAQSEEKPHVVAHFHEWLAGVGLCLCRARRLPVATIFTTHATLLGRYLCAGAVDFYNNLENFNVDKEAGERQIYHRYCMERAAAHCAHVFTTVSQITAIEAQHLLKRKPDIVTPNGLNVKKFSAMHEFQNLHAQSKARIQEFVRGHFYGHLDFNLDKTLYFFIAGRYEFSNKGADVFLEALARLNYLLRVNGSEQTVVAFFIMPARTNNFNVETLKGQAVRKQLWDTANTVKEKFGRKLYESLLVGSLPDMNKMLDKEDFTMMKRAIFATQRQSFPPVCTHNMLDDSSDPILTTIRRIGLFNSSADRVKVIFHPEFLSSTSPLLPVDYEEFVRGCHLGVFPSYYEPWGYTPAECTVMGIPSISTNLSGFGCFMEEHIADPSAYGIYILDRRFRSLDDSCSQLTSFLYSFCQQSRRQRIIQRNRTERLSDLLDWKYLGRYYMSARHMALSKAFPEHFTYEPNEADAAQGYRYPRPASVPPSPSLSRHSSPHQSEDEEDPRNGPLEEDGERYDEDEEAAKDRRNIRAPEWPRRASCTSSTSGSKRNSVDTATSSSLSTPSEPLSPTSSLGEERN

Structure (SMILES) | EC50 [µM]
COCc1coc2c(-c3ccc(OCc4cccc(C(=O)N5CCC[C@H]5C(=O)O)c4)cc3)cc(F)c(F)c12 [compound of Ex. 45, 1-[3-({4-[4,5-difluoro-3-(methoxymethyl)-1-benzofuran-7-yl]phenoxy}methyl)benzoyl]-L-proline] | 0.8
N#CCc1coc2c(-c3ccc(OCc4cccc(C(=O)N5CCC[C@H]5C(=O)O)c4)cc3)cc(F)c(F)c12 [compound of Ex. 46, 1-[3-({4-[3-(cyanomethyl)-4,5-difluoro-1-benzofuran-7-yl]phenoxy}methyl)benzoyl]-L-proline] | 0.15
C#CCOc1cc(-c2ccc(OCc3cccc(C(=O)N4CCC[C@H]4C(=O)O)c3)cc2)cc(F)c1F [compound of Ex. 47, 1-[3-({[3′,4′-difluoro-5′-(prop-2-yn-1-yloxy)biphenyl-4-yl]oxy}methyl)benzoyl]-L-proline] | 0.15
N#CCOc1cc(-c2ccc(OCc3cccc(C(=O)N4CCC[C@H]4C(=O)O)c3)cc2)cc(F)c1F [compound of Ex. 48, 1-[3-({[3′-(cyanomethoxy)-4′,5′-difluorobiphenyl-4-yl]oxy}methyl)benzoyl]-L-proline] | 0.12
N#Cc1cc2c(F)c(F)cc(-c3ccc(OCc4cccc(C(=O)N5CCC[C@H]5C(=O)O)c4)cc3)c2o1 [compound of Ex. 54] | 0.26
Cc1csc2c(-c3ccc(OCc4cccc(C(=O)N5CCC[C@H]5C(=O)O)c4)cc3)cc(F)c(F)c12 [compound of Ex. 55, 1-(3-{[4-(4,5-difluoro-3-methyl-1-benzothien-7-yl)phenoxy]methyl}benzoyl)-L-proline] | 0.085
NC(=NO)c1cc2c(F)c(F)cc(-c3ccc(OCc4cccc(C(=O)N5CCC[C@H]5C(=O)O)c4)cc3)c2o1 [compound of Ex. 57, 1-{3-[(4-{2-[amino(hydroxyimino)methyl]4,5-difluoro-1-benzofuran-7-yl}phenoxy)methyl]benzoyl}-L-proline] | 0.14
O=C(O)[C@@H]1CCN1C(=O)c1cccc(COc2ccc(-c3cc(F)c(F)c4ccoc34)cc2)c1 [compound of Ex. 59, (2S)-1-(3-{[4-(4,5-difluoro-1-benzofuran-7-yl)phenoxy]methyl}benzoyl)azetidine-2-carboxylic acid] | 0.15
O=C(O)[C@@H]1CCCN1C(=O)c1cccc(COc2ccc(-c3cc(F)c(F)c4ccoc34)cc2F)c1 [compound of Ex. 60, 1-(3-{[4-(4,5-difluoro-1-benzofuran-7-yl)-2-fluorophenoxy]methyl}benzoyl)-L-proline] | 0.16
Cc1cc2c(F)c(F)cc(-c3ccc(OCc4cccc(C(=O)N5CCC[C@H]5C(=O)O)c4)cc3)c2s1 [compound of Ex. 62, 1-(3-{[4-(4,5-difluoro-2-methyl-1-benzothien-7-yl)phenoxy]methyl}benzoyl)-L-proline] | 0.27
C[C@@H](C(=O)O)N(C)C(=O)c1cccc(COc2ccc(-c3cc(F)c(F)c4ccoc34)cc2)c1 [compound of Ex. 63, N-(3-{[4-(4,5-difluoro-1-benzofuran-7-yl)phenoxy]methyl}benzoyl)-N-methyl-L-alanine] | 0.22
O=C(O)[C@@H]1C=CCN1C(=O)c1cccc(COc2ccc(-c3cc(F)c(F)c4ccoc34)cc2)c1 [compound of Ex. 64, (2S)-1-(3-{[4-(4,5-difluoro-1-benzofuran-7-yl)phenoxy]methyl}benzoyl)-2,5-dihydro-1H-pyrrole-2-carboxylic acid] | 0.14
N#Cc1cc2c(F)c(F)cc(-c3ccc(OCc4cccc(C(=O)N5CCC[C@H]5C(=O)O)c4)cc3)c2s1 [compound of Ex. 67, 1-(3-{[4-(2-cyano-4,5-difluoro-1-benzothien-7-yl)phenoxy]methyl}benzoyl)-L-proline] | 0.59
O=C(O)[C@@H]1CSCN1C(=O)c1cccc(COc2ccc(-c3cc(F)c(F)c4ccoc34)cc2)c1 [compound of Ex. 68, (4R)-3-(3-{[4-(4,5-difluoro-1-benzofuran-7-yl)phenoxy]methyl}benzoyl)-1,3-thiazolidine-4-carboxylic acid] | 0.34
COCc1cc2c(F)c(F)cc(-c3ccc(OCc4cccc(C(=O)N5CCC[C@H]5C(=O)O)c4)cc3)c2o1 [compound of Ex. 73, 1-[3-({4-[4,5-difluoro-2-(methoxymethyl)-1-benzofuran-7-yl]phenoxy}methyl)benzoyl]-L-proline] | 0.065
COCc1cc2c(F)c(F)cc(-c3ccc(OCc4cccc(C(=O)N5CCC[C@H]5C(=O)O)c4)cc3)c2s1 [compound of Ex. 74, 1-[3-({4-[4,5-difluoro-2-(methoxymethyl)-1-benzothien-7-yl]phenoxy}methyl)benzoyl]-L-proline] | 0.2

The molecules below were run against PPAR-α (Homo sapiens (Human), UniProt Q07869) (assay: Measurement of PPAR-α activity (GAL4 luciferase reporter assay in CV-1 cells)). Details: 100(A/B), A = maximum activity at 3, 10, 30 and 100 μM, B = compound in WO/2011/058154 at 100 μM, read-out: PPARα relative fold induction (%).
Assay type: cell-based
Procedure: The PPAR-α activity was measured according to the published article (THE JOURNAL OF BIOLOGICAL CHEMISTRY Vol. 270, No. 22, 12953-12956, 1995).
Plasmids used for the PPAR-α activity measurement were constructed as follows. A luciferase expression plasmid (UASx5-TK-Luc) used was obtained by introducing a sequence, in which five yeast GAL4-binding sequences are linked in tandem, upstream of a thymidine kinase promoter of pTAL-Luc (Takara Bio Inc., 6252-1). A PPAR-α receptor expression plasmid (hGR-GAL4-hPPARα) used was obtained by introducing a human GR N-terminal region (1-76 aa), a yeast GAL4 DNA-binding region (1-147 aa), and a PPARα ligand-binding region (167-468 aa) between a Not I site and a Sal I site of pExchange-1 Core Vector (Invitrogen Corporation, 211176).
A reporter assay was conducted by the following method using Cercopithecus aethiops kidney-derived CV-1 cells. The CV-1 cells were seeded in a 96-well plate (Thermo Fisher Scientific Inc., 4938) at 2×10^4 cells/well using a 10% FBS-containing DMEM (Nacalai Tesque, Inc., 0845874) medium. After culturing under conditions of 37° C. and 5% CO2 for 2 hours, the plasmids were transfected. Lipofectamine LTX (Invitrogen Corporation, 15338-100) was used for the transfection according to the attached manual. The plasmid solution was prepared by adding a mixture solution of the luciferase expression plasmid and the PPAR-α receptor expression plasmid to OPTI-MEM I (Invitrogen Corporation, 11058-021). After the transfection was conducted, the test compound was added, and cultured at 37° C. in the presence of 5% CO2 for 18 to 20 hours. After the culturing was completed, the luciferase activity was measured with Luminescensor JNR (ATTO) using Bright-Glo (Promega Corporation, E2620).
The fold induction of PPAR-α by the test compounds was calculated by the following method. For the compounds of Examples 1, 4, 5, 7, and 9, PPAR-α relative fold induction (%) was defined as 100 (A/B), where A represents the maximum value of PPAR-α activities with the test compound at 0.3 μM, 1 μM, 3 μM, 10 μM, 30 μM, and 100 μM, and B represents the PPAR-α activity with the compound in WO/2011/058154 at 100 μM. For the compounds of Examples 11, 15, 19, 22, 26, and 32, PPAR-α relative fold induction (%) was defined as 100 (A/B), where A represents the maximum value of PPAR-α activities with the test compound at 3 μM, 10 μM, 30 μM, and 100 μM, and B represents the PPAR-α activity with the compound in WO/2011/058154 at 100 μM.

Chain of PPAR-α (Q07869 167-468): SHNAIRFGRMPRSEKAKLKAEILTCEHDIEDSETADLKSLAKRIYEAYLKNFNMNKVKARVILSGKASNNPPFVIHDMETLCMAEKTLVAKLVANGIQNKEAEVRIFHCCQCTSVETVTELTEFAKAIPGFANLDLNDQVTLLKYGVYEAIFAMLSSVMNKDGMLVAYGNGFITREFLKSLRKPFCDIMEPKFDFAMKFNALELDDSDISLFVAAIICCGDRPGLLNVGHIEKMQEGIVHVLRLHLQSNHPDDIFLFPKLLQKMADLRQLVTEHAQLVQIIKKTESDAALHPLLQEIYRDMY

Structure (SMILES) | Emax [%]
O=C(O)[C@@H]1CCCN1C(=O)c1cccc(COc2ccc(-c3cc(F)cc4c3OCC=C4)cc2)c1 [compound of Ex. 11] | 18
